From patent US8658683B2, “Combination of alpha-2 receptor agonist (clonidin) and anti-muscarinic agent (oxybutynin) for the treatment of sialorrhoea” (Orient Pharma (Samoa) Co., Ltd, priority 2006, dated 2014)

What was measured:
[1] = test system: patients with Parkinson's disease; conditions: ophthalmic solution given sublingually, cited from earlier work
[2] = test system: healthy male volunteers; test: Saxon test of saliva production, open-label rising dose study; type: in vivo, human; conditions: for saliva production over time: drug administered alone, pre-dose to 6 h post-dose; for effect of dose on saliva production: drug alone, rising dose levels
Protocol: The study examined the effects of clonidine and oxybutynin on saliva production in 9 healthy male volunteers. This was an open-label, non-randomised, two-period, rising dose study.
The subjects were assessed on each dosing occasion for saliva production pre-dose and 1 h, 2.5 h, 4 h and 6 h post-dose. Vital signs were recorded at specified times during each study period and adverse events were reported throughout.
Using this information, a mixed effects regression analysis of the % reduction in saliva versus dose with subject as a random effect was performed for both clonidine and oxybutynin. From this model, an approximate ED30 and an ED50 were calculated.
The key observation in this study is based on the Saxon test. See Kohler & Winter, Arthritis Rheum.

[3] = test system: sialorrhoea induced by clozapine; conditions: in vivo; cited from earlier work
[4] = test system: Parkinson's patients; conditions: 0.15 mg per os, 17 Parkinson's patients; cited from earlier work
[5] = test system: patients; conditions: tablets; cited from earlier work
[6] = test system: patients receiving clozapine with excessive drooling; conditions: nasal spray 0.03-0.06% sublingually, 8 patients, after several weeks of use; cited from earlier work

For `CN1[C@@H]2CC[C@H]1C[C@@H](OC(=O)C(CO)c1ccccc1)C2` (stereo partly shown) [atropine], the “patients who suffered hallucinations” value ([1]; 7 patients) is given as 2 of the 7 and the saliva production ([1]; small case study) is given as “significant decline in saliva production”.
With `Clc1cccc(Cl)c1N=C1NCCN1` [clonidine] the “AUCT of saliva production compared to placebo” value (“AUCT … compared to placebo” below) ([2]; 50 mcg clonidine) was “reduction in AUCTs”, the “AUCT … compared to placebo” value ([2]; 100 mcg clonidine) was “reduction in AUCTs” and the “saliva production over time” value [2] was “trend towards a reduction in saliva production over time”. The “effect of dose on saliva production” value [2] was “significant with increasing dose levels”, the “reduction of sialorrhoea induced by clozapine” value [3] was “effective in reducing sialorrhoea” and the “patients who experienced side-effects” value [4] was “Four of the 17”. The reduction of sialorrhoea [4] was “significantly reduce sialorrhoea”.
For `C[N+]1(C)CCC(OC(=O)C(O)(c2ccccc2)C2CCCC2)C1` (stereo not shown) [glycopyrrolate], the “patients by whom the drug is not well tolerated” value [5] is listed as 20-25 % of patients.
For `CC(C)[N+]1(C)[C@@H]2CC[C@H]1C[C@@H](OC(=O)C(CO)c1ccccc1)C2` (stereo partly shown) [ipratropium], the non-responder patients [6] is given as 1 patient, the “patients with full response” value [6] is given as 2 patients and the “patients with partial response (symptoms controlled for 2-8 hours)” value [6] is given as 5 patients.
In the case of `CCN(CC)CC#CCOC(=O)C(O)(c1ccccc1)C1CCCCC1` (stereo not shown) [oxybutynin], the “AUCT … compared to placebo” value ([2]; 10 mg oxybutynin) is reported as “AUCT was reduced”, the “saliva production over time” value [2] is reported as “trend towards a reduction in saliva production over time” and the “effect of dose on saliva production” value [2] is reported as “no significant effects of dose on saliva production”.
